US7485653B2, “1,4-dihydropyridine compounds, pharmaceutical compositions, and methods for the treatment of cardiovascular disease” (Gilead Sciences, Inc., priority 2003, dated 2009)
pEC50, pIC50: −log10 of the molar value.

Assays:
[1] = system: α-myosin heavy chain (α-MyHC) protein levels; test: α-MyHC cytoblot assay in neonatal rat ventricular myocytes (NRVM); assay type: cell-based
Experimental: FIG. 1 Concentration-dependent effect of Compound 1 on αMyHC protein levels in the cytoblot assay. NRVM are cultured for 3 days in serum-free medium in the presence of differing amounts of Compound 1. At the end of the culture period, NRVM are fixed and analyzed for α-MyHC protein levels using the BA-G5 monoclonal antibody specific for α-MyHC. Results are collected as RLU using a Packard Fusion Plate reader, and normalized to the signal from samples cultured in the absence of compound (control, set to 100%).
Preparation and culture of neonatal rat ventricular myocytes (NRVM) was performed by removing hearts from 1-3 day old rat neonatal pups, along with the atria and lungs. The ventricles were cut into smaller pieces and digested 3 times with collagenase for 20-30 min at 37° C. The myocytes were then separated from other cell types using a Percoll gradient. The myocyte layer was collected, washed 2 times, and plated on tissue culture grade 10 cm Petri dishes for 1-2 hrs. The non-adherent cells (myocytes) were removed and plated in Costar clear view 96 well plates coated with 0.2% gelatin for at least 2 hrs. The gelatin solution was removed, and the myocytes were resuspended in DMEM high glucose media (Mediatech) containing 10% charcoal/dextran treated FBS (Hyclone) and 1% Penicillin-Streptomycin-Glutamine (PSG, Gibco). Ten thousand NRVM were plated per well in a 100 μl volume, and incubated overnight at 37° C. in 5% CO2 in air. The following day, the media was replaced with 100 μl of serum-free DMEM high glucose medium supplemented with PSG and 0.3% Nutridoma-SP (Roche).
Compounds were reconstituted in DMSO at 30 mM, and aliquots were stored at −20° C. A 1:1000 dilution was prepared in serum-free DMEM medium supplemented with PSG and 0.3% Nutridoma, and sonicated for 5 min at room temperature. After sonication, additional 3 fold dilutions were prepared in the same medium. Diluted compound was then added to the NRVM cultures in a volume of 100 μl. […]
For the α-MyHC cytoblot assay, NRVM cultures were analyzed for α-MyHC protein levels after 3 days of incubation. […] Excess antibody was removed with 3 PBS washes, and a chemiluminescent substrate was added (Pierce SuperSignal West Pico Chemiluminscent Substrate) for 5 min before quantitation on a Packard Fusion Plate Reader.
As shown above in Table 1, Compound 1 increased α-MyHC protein levels as determined by an α-MyHC cytoblot assay. […] After 3 days of incubation with NRVM, α-MyHC protein levels were detected in the cytoblot assay and quantitated (FIG. 1). […] An increase in α-MyHC protein levels was first detected beginning at 30 nM, with a maximal response observed at 3 μM. […]

[2] = system: Hypertrophy of NRVM (secretion of atrial natriuretic factor); test: Anti-hypertrophic activity in NRVM, ANF ELISA (ANF secretion); assay type: cell-based; conditions: Rattus norvegicus, read-out: IC50 of the ANF ELISA (antihypertrophic activity)
Experimental: Anti-hypertrophic Activity of Racemic Compound 1 and the Purified Enantiomers of Compound 1. Neonatal rat ventricular myocytes (NRVM) were isolated from 1 to 3 day-old Sprague-Dawley rats using enzymatic digestion and myocyte enrichment techniques. NRVM were cultured in serum-containing media for 18 hours. For the continuation of culture, serum-free media was used. Hypertrophy of NRVM was induced using pharmacological stimuli, including phenylephrine, endothelin-1, and […]. Hypertrophic responses were determined using methods including the following: measurement of total cellular protein; secretion of atrial natriuretic factor; determination of cell volume; determination of the expression of so-called fetal genes such as atrial natriuretic factor, beta-myosin heavy chain and alpha-skeletal actin. ANF secretion was the most sensitive assay for measuring hypertrophy, and the IC50 of the ANF ELISA was the measurement used to determine antihypertrophic activity.

[3] = system: α-MyHC protein levels; test: Western blotting of α-MyHC protein in NRVM; assay type: cell-based, rat; conditions: NRVM stimulated 3 days; Compound 1 10 nM to 10 μM
Experimental: FIG. 2 Effect of Compound 1 on α-MyHC protein levels as detected by Western blotting. NRVM are stimulated with Compound 1 at different concentrations for 3 days. Protein extracts are prepared, proteins are separated by SDS-PAGE electrophoresis, transferred to PVDF membrane, and detected with an anti-α-MyHC monoclonal antibody.
As an independent measure of changes in α-MyHC protein levels, NRVM stimulated with Compound 1 were analyzed for α-MyHC protein levels by Western blotting. Protein extracts prepared from NRVM stimulated with a range of concentrations of Compound 1 from 10 nM to 10 μM were separated by SDS-PAGE and transferred to PVDF membrane. Levels of α-MyHC protein were detected by Western blotting using the same anti-α-MyHC monoclonal antibody used in the cytoblot assay. […] This experiment verified that the changes in α-MyHC protein detected in the cytoblot assay were also evident by Western blotting.

## CC(=O)C1=C(C)NC(SCC(=O)c2cccc([N+](=O)[O-])c2)=C(C#N)C1c1ccccc1Cl (racemic) [Compound 1]
[1]; 3 days incubation
  % increase of a-MyHC over baseline at 10 mM Cpd: 206%
[1]; 3 days, tested 3 nM to 30 μM
  concentration at which an increase in α-MyHC protein levels was first detected: 30 nM
  concentration of maximal response (α-MyHC protein levels): 3 µM
[1]; Rattus norvegicus, Ventricular myocyte, 72 h, 3 days, average of six independent experiments, read-out: concentration that gave a half-maximal response (α-MyHC protein levels)
  pEC50: 7.22
[2]
  pIC50: 6.37
[3]
  α-MyHC protein levels by Western blotting: increasing amounts of α-MyHC protein were observed with increasing amounts of Compound 1
